Measured values from patent US5726302A, “Water soluble adenosine kinase inhibitors” (Gensia Inc., priority 1995, dated 1998).
Read-outs that look alike come from different tables or passages of the source. Values belong to the compound of their own block, whether it stands above or below them.

How the values were obtained:
adenosine kinase = conditions: read-out: Ki, inhibition of adenosine kinase; cited from earlier work
rat cardiomyocytes = conditions: inhibition of adenosine deaminase alone; cited from earlier work
[1] = system: isolated guinea pig hearts; conditions: in the absence of ADA inhibition; cited from earlier work
isolated rat hearts = conditions: alone, cited from earlier work
dog hearts = conditions: in vivo; cited from earlier work
mice [2] = conditions: cited from earlier work
anesthetized rats = conditions: cited from earlier work
ischemic cerebral injury = conditions: Phillis et al.; cited from earlier work
male SA rats [3] = assay: Anticonvulsant activity, maximal electroshock (MES) model; type: in vivo; conditions: Rattus norvegicus, 1 h; po; one hour after dosing, fasted
Protocol: The anticonvulsant activity of the tested compounds was evaluated in male SA rats (100-150 g, Simonsen) using the maximal electroshock (MES) model described in Swinyard et al., Antiepileptic Drugs, 3d Ed. at 85-102 (Levy, et al., eds.), N.Y.: Raven Press (1989). The rats were maintained on a 12/12 light/dark cycle in temperature controlled facilities with free access to food and water. For p.o. administration, the animals are fasted overnight, prior to the experiment. One hour prior to seizure testing, the animals were injected interperitoneally (ip) or orally (per os, […]) with one of various doses of test compound dissolved in DMSO or PEG 400.
This endpoint was expressed as the percentage of animals in which the response was inhibited.

male SA rats [4] = assay: Analgesic activity, hot plate; type: in vivo; conditions: Rattus norvegicus, ip
male SA rats [5] = assay: Analgesic activity, tail flick; type: in vivo; conditions: Rattus norvegicus, ip
Rats = assay: Anti-inflammatory activity, carrageenan paw; type: in vivo, rat; conditions: 10 mg/kg, swelling after 3 hours
Protocol: Carrageenan (Type λ) was suspended in sterile PBS at 1% (w/v), autoclaved for 30 minutes, and stored at room temperature. Rats were pretreated with vehicle or AK inhibitor (10 mg/kg) by oral gavage or i.p. administration and the volume of the left hind paw was measured using a water displacement plethysmometer (Stoelting Co., Wood Dale, Ill.). One hour after oral treatment or 30 minutes after i.p. treatment, the rats were briefly anesthetized, and 0.1 ml of the carrageenan solution was injected subcutaneously into the planar surface of the left hind paw. The ensuing paw swelling was measured by plethysmometry after 3 hours. The paw volume in millileters was subtracted from the pre-injection paw volume. Data are presented as the percent inhibition of paw swelling in AK inhibitor treated animals, compared to vehicle treated control animals.

Water solubility = type: physicochemical; conditions: deionized water (DI)
Protocol: The sample was sonicated for a period of up to 20 minutes. If a solution was not obtained, further solvent was added and the process was repeated until a clear solution was obtained, and the results were recorded. Solutions used were 50 mM potassium biphthalate (pH 4); 100 mM glycine (pH 9); 25 mM sodium carbonate and 25 mM sodium bicarbonate (pH 10); or deionized water (DI).

[6] = target: partially purified pig heart adenosine kinase (Sus scrofa, UniProt A0A5G2R0F5); assay: biochemical
Chain of partially purified pig heart adenosine kinase (A0A5G2R0F5 1-362): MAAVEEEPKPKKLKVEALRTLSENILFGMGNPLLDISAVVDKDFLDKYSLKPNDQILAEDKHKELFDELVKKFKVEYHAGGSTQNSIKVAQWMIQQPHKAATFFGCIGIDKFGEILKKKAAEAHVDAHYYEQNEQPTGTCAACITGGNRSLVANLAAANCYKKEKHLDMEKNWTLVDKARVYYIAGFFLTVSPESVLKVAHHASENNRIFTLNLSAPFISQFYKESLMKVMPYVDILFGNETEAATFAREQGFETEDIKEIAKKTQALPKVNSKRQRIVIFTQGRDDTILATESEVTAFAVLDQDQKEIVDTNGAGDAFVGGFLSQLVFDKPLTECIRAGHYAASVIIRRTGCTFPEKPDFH
Protocol: Adenosine kinase activity was measured essentially as described by Yamada et al Biochim. Biophys. Acta 660, 36-43 (1988) with a few minor modifications. Assay mixtures contained 50 mM TRIS-maleate buffer, pH 7.0, 0.1% BSA, 1 mM ATP 1 mM MgCl2, 0.5 μM [U-^14 C] adenosine (400-600 mCi/mmol) and varying duplicate concentrations of inhibitor. The reactions were initiated by addition of approximately 0.1 μU partially purified pig heart adenosine kinase, where one unit is defined as that amount of enzyme required to phosphorylate 1 μmol adenosine per minute. The reactions were incubated for 20 minutes at 37° C. The assay was quenched upon spotting 30 μL aliquots onto 2 cm^2 pieces of Whatman DE81 anion exchange paper. The paper squares were washed for 3 minutes in 6 L distilled/deionized water to remove the unreacted adenosine. […] The amount of ^14 C-AMP was quantified by scintillation counting.

mice [7] = assay: HPLC analysis of plasma for metabolism in mice after oral administration; type: in vivo; conditions: 10 mg/kg
[8] = ip, 30 minutes before carrageenan
[9] = po, one hour before carrageenan

SMILES: OC[C@H]1O[C@@H](n2cnc3c(NCCCCCCCCCCCCNc4ncnc5c4ncn5[C@@H]4O[C@H](CO)[C@@H](O)[C@H]4O)ncnc32)[C@H](O)[C@@H]1O [1,12-bis(adenosin-N^6-yl)dodecane]
Ki (adenosine kinase): < 0.1 µM

SMILES: OC[C@H]1O[C@@H](n2cnc3c2N=CNC[C@H]3O)C[C@@H]1O [2'-deoxycoformycin]
effect on adenosine release from the cells (rat cardiomyocytes): no effect on adenosine release

SMILES: NC[C@H]1O[C@@H](n2cnc3c(N)ncnc32)[C@H](O)[C@@H]1O [5'-amino-5'-deoxyadenosine]
Ki (adenosine kinase): < 0.1 µM
increase of adenosine release [1]: not apparent in the absence of ADA inhibition

SMILES: Nc1ncnc2c1c(I)cn2[C@@H]1O[C@H](CO)[C@@H](O)[C@H]1O [5-iodotubercidin]
increase in perfusate adenosine concentration (isolated rat hearts; hypoxic, anoxic or ischemic conditions): no increase in perfusate adenosine concentration
increase in perfusate adenosine concentration (isolated rat hearts; normoxic conditions): no increase in perfusate adenosine concentration
effects in dog hearts subjected to ischemia and reperfusion (dog hearts): inconsistent effects
general flaccidity (skeletal muscle relaxation) (mice [2]): pronounced general flaccidity
hypothermia (mice [2]): hypothermia
spontaneous locomotor activity (mice [2]): much-reduced spontaneous locomotor activity
blood pressure (anesthetized rats): decrease blood pressure
heart rate (anesthetized rats): decrease blood pressure and heart rate
protection against ischemic cerebral injury (ischemic cerebral injury): apparently does not protect against ischemic cerebral injury

solubility (Water solubility): > 5000 µg/mL
SMILES: C[C@H]1O[C@@H](n2cc(-c3ccccc3)c3c(Nc4ccc(CN(C)C)cc4)ncnc32)[C@H](O)[C@@H]1O [Compound 1, 4-N(N,N-Dimethylaminomethylphenyl)amino-5-phenyl-7-(5-deoxy-β-D-ribofuranosyl)pyrrolo[2,,3-d]pyrimidine]
ED50 (male SA rats [3]): > 20 mg/kg
ED50 (male SA rats [4]): 15.2 mg/kg
ED50 (male SA rats [5]): 15 mg/kg
Carrageenan Paw (% inhibition) of paw swelling (Rats; [8]): 26.0%
Carrageenan Paw (% inhibition) of paw swelling (Rats; [9]): 19.2%

AK inhibition in vitro ([6]; in vitro): weak AK inhibitor in vitro
IC50 ([6]; pig heart adenosine kinase, 0.5 μM adenosine, pH 7.0, 20 minutes at 37° C, read-out: AK Inhibition (IC50)): 10 µM
metabolism in mice shown by HPLC analysis of plasma (mice [7]): generate a potent AK inhibitor
SMILES: C[C@H]1O[C@@H](n2cc(I)c3c(NCCc4ccccn4)ncnc32)[C@H](O)[C@@H]1O [Compound 43, 4-N-(2-(2-pyridylethyl)amino)-5-iodo-7-(5-deoxy-1-β-D-ribofuranosyl)pyrrolo[2,3-d]pyrimidine]
Carrageenan Paw (% inhibition) of paw swelling (Rats; [8]): 58.6%
Carrageenan Paw (% inhibition) of paw swelling (Rats; [9]): 69.7%
